Experimental data taken from patent US20030191144A1, “Compounds, compositions and methods for modulating beta-amyloid production” (Active Pass Pharmaceuticals, Inc., priority 2001, published 2003).

Columns and labels:
[1] = tested on: Aβ42 production and/or release from SM-4 cells; experiment: Aβ42 ELISA of culture media from SM-4 cells; assay type: cell-based; conditions: 16 hrs, p<0.001
Method: Cell Lines and Pharmacological Treatments. 293 EBNA cells (InVitrogen, Carlsbad, Calif.) stably transfected with Swedish mutant β-Amyloid Precursor Protein -695 (SM4 cells) were routinely maintained in DMEM supplemented with sodium pyruvate (1 mM) and 10% fetal bovine serum. Cells were seeded into poly-D-Lysine (SIGMA) coated 6-well plates at a density of 5-7×10^5 cells per well. Subsequently, the cells were rinsed in 1 ml of PBS and treated with 10-500 μM of pirinixic acid in serum-free/phenol red-free DMEM for 16 hours.
(§1) Aβ Detection and Standardization. After the pharmacological treatment, the exposure media was collected and supplemented with 10% sample treatment buffer (40 mM sodium phosphate (pH 7.4), 40 mM triethanolamine, 0.1% Triton X-100, 200 mM NaCl, 2 mM EGTA, 0.1% Sodium azide), and assayed for either Aβ40 or Aβ42 by a calorimetric ELISA as per the manufacturer's protocol (Biosource International Inc, California). The cells were lysed in 0.1% Triton X-100 in PBS supplemented with 5 μM propridium iodide (Molecular Probes, Eugene, Oreg.) and incubated at 37° C. for 30 minutes prior to measuring fluorescence. Aβ40 and Aβ42 were standardized against propridium iodide fluorescence as a measure of total cell number. […]
as §1, with “After” for “Aβ Detection and Standardization. After”
After the pharmacological treatment, the exposure media was collected and supplemented with 10% sample treatment buffer (40 mM sodium phosphate (pH 7.4), 40 mM triethanolamine, 0.1% Triton X-100, 200 mM NaCl, 2 mM EGTA, 0.1% Sodium azide), and assayed for either Aβ40 or Aβ42 by a colorimetric ELISA as per the manufacturer's protocol (Biosource International Inc, California). The cells were lysed in 0.1% Triton X-100 in PBS supplemented with 5 μM propridium iodide (Molecular Probes, Eugene, Oreg.) and incubated at 37° C. for 30 minutes prior to measuring fluorescence. Aβ40 and Aβ42 were standardized against propridium iodide fluorescence as a measure of total cell number.

[2] = tested on: Aβ40 production and/or release from SM-4 cells; experiment: Aβ40 ELISA of culture media from SM-4 cells; assay type: cell-based; conditions: 16 hrs
Method: Cell Lines and Pharmacological Treatments. 293 EBNA cells (InVitrogen, Carlsbad, Calif.) stably transfected with Swedish mutant β-Amyloid Precursor Protein -695 (SM4 cells) were routinely maintained in DMEM supplemented with sodium pyruvate (1 mM) and 10% fetal bovine serum. Cells were seeded into poly-D-Lysine (SIGMA) coated 6-well plates at a density of 5-7×10^5 cells per well. Subsequently, the cells were rinsed in 1 ml of PBS and treated with 10-500 μM of pirinixic acid in serum-free/phenol red-free DMEM for 16 hours. Aβ Detection and Standardization. After the pharmacological treatment, the exposure media was collected and supplemented with 10% sample treatment buffer (40 mM sodium phosphate (pH 7.4), 40 mM triethanolamine, 0.1% Triton X-100, 200 mM NaCl, 2 mM EGTA, 0.1% Sodium azide), and assayed for either Aβ40 or Aβ42 by a calorimetric ELISA as per the manufacturer's protocol (Biosource International Inc, California). The cells were lysed in 0.1% Triton X-100 in PBS supplemented with 5 μM propridium iodide (Molecular Probes, Eugene, Oreg.) and incubated at 37° C. for 30 minutes prior to measuring fluorescence. Aβ40 and Aβ42 were standardized against propridium iodide fluorescence as a measure of total cell number. 293 EBNA cells (InVitrogen, Carlsbad, Calif.) stably transfected with Swedish mutant β-Amyloid Precursor Protein -695 (SM4 cells) were routinely maintained in DMEM supplemented with sodium pyruvate (1 mM) and 10% fetal bovine serum. […] The cells were lysed in 0.1% Triton X-100 in PBS supplemented with 5 μM propridium iodide (Molecular Probes, Eugene, Oreg.) and incubated at 37° C. for 30 minutes prior to measuring fluorescence. Aβ40 and Aβ42 were standardized against propridium iodide fluorescence as a measure of total cell number. […] The cells were lysed in 0.1% Triton X-100 in PBS supplemented with 5 μM propridium iodide (Molecular Probes, Eugene, Oreg.) and incubated at 37° C. for 30 minutes prior to measuring fluorescence. Aβ40 and Aβ42 were standardized against propridium iodide fluorescence as a measure of total cell number.

Row | Compound | inhibition of Aβ42 secretion ([1]; 300 μM) [%] | effect on Aβ40 ([2]; 50-300 μM) | inhibition of Aβ42 secretion ([1]; 100 μM) [%] | effect on Aβ40 ([2]; 5-100 μM)
1 | Cc1cccc(N(C)c2cc(Cl)nc(SCC(=O)O)n2)c1C [Compound 1] | 66 | without altering Aβ40 |  | 
2 | CCN(c1cc(Cl)nc(SCC(=O)O)n1)c1cccc(C)c1C [Compound 2, {4-chloro-6-[(2,3-dimethylphenyl)ethylamino]pyrimidin-2-yl-sulfanyl}acetic Acid] |  |  | 80 | without altering Aβ40
